Measured values: the supplement of paper PMC10307832

How the values were obtained:
Experiment in all cases: relative viability (nuclei count vs DMSO), 5 days (fraction); higher = more cells survive
[1] = compound: NCC(=O)Nc1ccc(-n2nc(C(F)(F)F)cc2-c2ccc3c(ccc4ccccc43)c2)cc1 + Nc1ncn([C@H]2C[C@H](O)[C@@H](CO)O2)c(=O)n1 [Decitabine] (partner 2 µM)
Outline: (§1)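 The day after seeding in 1536-well plates, lung cancer cell lines were treated by pin tool with a single drug, or with a fixed anchor-drug dose together with five library-drug doses (not always all listed) in √10 steps. After 5 days, a combined fix-and-stain solution (final 0.05% Triton X-100, 1% formaldehyde, 1 ug/ml Hoechst) was added. Nuclei counted on 4× images gave relative viability as treated counts over vehicle counts, reported as the median of duplicate plates.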

[2] = compound: C1CSC2=C(C(=O)N1)SC3=C2C=C(C=C3)O [kb NB 142-70] + CC(=O)c1c(C)c2cnc(Nc3ccc(N4CCNCC4)cn3)nc2n(C2CCCC2)c1=O [Palbociclib] (partner 0.5 µM)
Outline: as §1

[3] = compound: NCC(=O)Nc1ccc(-n2nc(C(F)(F)F)cc2-c2ccc3c(ccc4ccccc43)c2)cc1 + Cc1nc(NC(=O)N2CCC[C@H]2C(N)=O)sc1-c1ccnc(C(C)(C)C(F)(F)F)c1 [Alpelisib] (partner 2 µM)
Outline: as §1

[4] = compound: NCC(=O)Nc1ccc(-n2nc(C(F)(F)F)cc2-c2ccc3c(ccc4ccccc43)c2)cc1 + CS(=O)(=O)CCNCc1ccc(-c2ccc3ncnc(Nc4ccc(OCc5cccc(F)c5)c(Cl)c4)c3c2)o1 [Lapatinib] (partner 2 µM)
Outline: as §1

Cell Line | relative viability ([1]; first compound 0.02 µM) | relative viability ([1]; first compound 0.06325 µM) | relative viability ([1]; first compound 0.2 µM) | relative viability ([1]; first compound 0.6325 µM) | relative viability ([1]; first compound 2 µM) | relative viability ([2]; first compound 0.1 µM) | relative viability ([2]; first compound 1 µM) | relative viability ([2]; first compound 3.162 µM) | relative viability ([3]; first compound 0.02 µM) | relative viability ([3]; first compound 0.06325 µM) | relative viability ([3]; first compound 0.2 µM) | relative viability ([3]; first compound 0.6325 µM) | relative viability ([3]; first compound 2 µM) | relative viability ([4]; first compound 0.02 µM) | relative viability ([4]; first compound 0.06325 µM) | relative viability ([4]; first compound 0.2 µM) | relative viability ([4]; first compound 0.6325 µM) | relative viability ([4]; first compound 2 µM)
NCI-H1975 | 0.407 | 0.39 | 0.43 | 0.404 | 0.464 | 0.599 | 0.662 | 0.435 | 0.668 | 0.64 | 0.652 | 0.677 | 0.693 | 0.816 | 0.915 | 0.854 | 0.91 | 0.969
CAL-12T | – | – | – | – | – | 0.48 | 0.363 | 0.188 | 1.2 | 1.27 | 1.34 | 1.03 | 1.03 | 0.671 | 0.823 | 0.672 | 0.709 | 0.679
HCC-44 | 0.885 | 0.956 | 0.933 | 0.905 | 0.927 | 0.96 | 1 | 1.03 | 0.752 | 0.832 | 0.817 | 0.709 | 0.785 | 1.02 | 1.16 | 0.974 | 1.03 | 1.05
EKVX | 0.365 | 0.368 | 0.369 | 0.393 | 0.361 | 0.361 | 0.393 | 0.37 | 0.939 | 0.809 | 0.924 | 0.927 | 1.01 | 0.213 | 0.216 | 0.228 | 0.223 | 0.203
NCI-H1651 | 0.594 | 0.351 | 0.591 | 0.619 | 0.613 | 0.527 | 0.555 | 0.526 | 0.927 | 0.964 | 0.969 | 0.847 | 0.941 | 0.715 | 0.758 | 0.782 | 0.909 | 0.85
NCI-H1944 | 0.492 | 0.43 | 0.436 | 0.392 | 0.44 | 0.334 | 0.358 | 0.376 | 0.865 | 0.833 | 0.793 | 0.818 | 0.87 | 0.813 | 0.888 | 0.752 | 0.801 | 0.876
NCI-H1703 | – | – | – | – | – | – | – | – | 0.377 | 0.306 | 0.343 | 0.353 | 0.385 | 1.03 | 1.09 | 1.41 | 0.964 | 1.04
Calu-6 | – | – | – | – | – | – | – | – | 1.05 | 1.07 | 1.15 | 0.943 | 0.913 | 0.969 | 1.12 | 1.19 | 1.16 | 0.963
EBC-1 | – | – | – | – | – | – | – | – | 0.785 | 0.785 | 0.962 | 0.835 | 0.834 | 0.21 | 0.219 | 0.215 | 0.222 | 0.226
SW 1573 | 0.496 | 0.524 | 0.524 | 0.518 | 0.436 | 0.418 | 0.376 | 0.208 | 0.782 | 0.741 | 0.807 | 0.75 | 0.765 | 1.17 | 1 | 1.17 | 0.978 | 1.08
A-427 | 0.502 | 0.544 | 0.583 | 0.545 | 0.57 | 0.505 | 0.555 | 0.507 | 1.05 | 1.09 | 1.14 | 1.14 | 1.05 | 1.08 | 1.11 | 1.14 | 1.04 | 1.11
NCI-H2347 | 0.661 | 0.599 | 0.74 | 0.615 | 0.599 | 0.438 | 0.439 | 0.488 | 1.04 | 1.03 | 1.18 | 1.15 | 1.12 | 0.883 | 0.939 | 0.955 | 1.03 | 0.884
NCI-H1355 | 0.371 | 0.362 | 0.403 | 0.408 | 0.347 | 0.417 | 0.39 | 0.404 | 0.781 | 0.949 | 0.825 | 0.838 | 0.865 | 1 | 1.05 | 1.08 | 0.951 | 1.05
NCI-H358 | 0.217 | 0.211 | 0.224 | 0.206 | 0.217 | 0.127 | 0.136 | 0.0896 | 0.82 | 0.881 | 0.931 | 0.821 | 0.939 | 0.553 | 0.323 | 0.41 | 0.528 | 0.491
PC-3 [JPC-3] | 0.818 | 0.854 | 0.768 | 0.863 | 0.777 | 0.516 | 0.54 | 0.534 | 1.04 | 1.07 | 1.05 | 1.07 | 1.13 | 0.411 | 0.458 | 0.428 | 0.444 | 0.528
NCI-H2228 | – | – | – | – | – | 0.819 | 0.719 | 0.446 | 0.785 | 0.84 | 0.669 | 0.689 | 0.921 | 1.1 | 1.21 | 1.14 | 0.935 | 0.804
HOP-62 | 0.214 | 0.228 | 0.225 | 0.206 | 0.192 | 0.496 | 0.473 | 0.441 | 1.09 | 0.995 | 0.922 | 0.975 | 0.859 | 1.06 | 0.913 | 0.998 | 0.959 | 1.14
HARA | 0.581 | 0.611 | 0.537 | 0.654 | 0.528 | 0.216 | 0.327 | 0.259 | 0.859 | 0.958 | 0.844 | 0.831 | 0.867 | 0.649 | 0.801 | 0.829 | 0.822 | 0.989
NCI-H838 | 0.489 | 0.494 | 0.504 | 0.441 | 0.335 | 0.203 | 0.219 | 0.188 | 0.971 | 1.01 | 1.12 | 0.916 | 0.933 | 0.934 | 0.893 | 0.974 | 0.778 | 0.576
